1 molecule from patent publication US11985974B2, “Antimicrobial ferulic acid derivatives and uses thereof” (WISCONSIN ALUMNI RESEARCH FOUNDATION, priority 2014, dated 2024) can be followed below.

One assay relates to S. sclerotiorum. The experiment in a line: Inhibition of S. sclerotiorum in planta on detached soybean leaves. It counts as in vivo, Sclerotinia sclerotiorum on soybean (Williams 82). The following applies: single aerosol treatment 500 μg/mL before inoculation, up to 120 h postinoculation. As for the experimental part: (§1) To test inhibition in liquid culture, a dose curve of 0, 125, 250, and 500 μg/mL poacic acid in 100 mL potato dextrose broth (n=3) was used. Cultures of S. sclerotiorum strain 1980 were inoculated with 100 μL homogenized mycelia and grown at 25° C. for 48 h. The mycelia in the liquid media were dried and weighed. The growth inhibition of poacic acid on solid agar cultures (potato dextrose agar) was assessed by generating replicate plates (n=3) containing 0, 125, 250, and 500 μg/mL poacic acid. Plates were inoculated with an actively growing plug of S. sclerotiorum and grown at 25° C. The mycelial radial growth after 48 h was measured Inhibition of S. sclerotiorum in planta was tested by inoculating detached soybean leaves of the commercial variety Williams 82 with an agar plug of actively growing S. sclerotiorum mycelia. Leaves were treated one time before inoculation with either an aerosol spray of water with DMSO (control) or a 500 μg/mL solution of poacic acid. Leaves were incubated in a moist environment, and lesion development was monitored up to 120 h postinoculation. […] The growth inhibition of poacic acid was assessed at 0, 500, 1,000, and 1,500 μg/mL in replicate plates (n=3). […] Colony diameter was monitored for each treatment in a time-course experiment. […]

In a further assay the test system is bck1Δ mutant. The experiment in a line: Sensitivity of individual bck1Δ mutant. The assay is classed as cell-based, Saccharomyces cerevisiae. As to conditions: bck1Δ mutant vs control strain. As for the experimental part: (§2) The diferulate compounds tested were synthesized as described by Lu et al. (2012) and resuspended in DMSO. Caspofungin, nikkomycin Z, and MMS were purchased from Sigma-Aldrich. Echinocandin B was a gift from O. Kondo (Chugai Pharmaceuticals, Tokyo, Japan). Micafungin was provided by Astellas Pharma. Diferulates were initially screened at a concentration of 1 mg/mL to determine bioactivity. Cells of Saccharomyces cerevisiae (MATα pdr1Δ::natMX pdr3Δ::KLURA3 snq2Δ::KI.LEU2 can1Δ::STE2pr-Sp_his5 lyp1Δ his3Δ1 leu2Δ0 ura3Δ0 met15Δ0), referred to as the control strain, were grown in 200-μL cultures at 30° C. in YPD with a drug or DMSO control. Plates were read on a TECAN M1000 over a 48-h growth period. The specific growth rate was calculated using GCAT analysis software (https://gcat3-pub.glbrc.org/) (Sato et al. 2014). When presented, IC50 values for growth rate inhibition were calculated from triplicate eight-point dose curves and SigmaPlot 12.0. When presented, error bars are means±SEs of at least three replicates.

In the next assay the test system is β-1,3-glucan synthesis. The assay is described as follows: In vivo β-1,3-glucan synthesis (14C-glucose incorporation). The assay is classed as cell-based, Saccharomyces cerevisiae. The following applies: 250 μg/mL, 2 h, 25° C. On the procedure:
Inhibition of in vivo β-1,3-glucan synthesis was measured as described previously with slight modification (n=3) (Abe et al. 2003). Yeast cells (his3Δ) were grown in YPD to early log phase at 25° C. The cultured cells were diluted to 1×10^7 cells per 1 mL with 1 mL of YPD medium containing one-tenth the glucose containing 23.125 kBq [14C] glucose (ARC0122; American Radiolabeled Chemicals) and test compounds [250 μg/mL for poacic acid, 4 μg/mL for echinocandin B, 30 mM for hydroxyurea (negative control), or 0.4% (vol/vol) DMSO as a solvent control]. The cells were radiolabeled by culturing at 25° C. for 2 h. The labeled cells were harvested and incubated with 1 N NaOH at 80° C. for 30 min. The insoluble pellets were resuspended in 10 mM Tris·HCl, pH 7.5, containing 5 mg/mL zymolyase 100T (Seikagaku) and incubated at 37° C. for 18 h. […] The flow-through fraction was mixed with scintillation mixture (Ultima Gold; PerkinElmer), and radioactivity was measured by a scintillation counter (LSC-6100; Aloka). The differences in the incorporation rates in samples were normalized by ΔOD600 measured before and after the labeling period.

The next assay has as its system P. sojae (field isolate). The experiment in a line: Colony growth of P. sojae on plates. The assay is classed as cell-based, Phytophthora sojae. As to conditions: 0, 500, 1,000, 1,500 μg/mL, 7 d, P<0.01. As for the experimental part: as §1
The subject of assay [1] is S. sclerotiorum strain 1980. The assay is described as follows: Growth inhibition of S. sclerotiorum in liquid and agar culture. It counts as cell-based, Sclerotinia sclerotiorum. As to conditions: 0, 125, 250, 500 μg/mL, 48 h, P<0.01. As for the experimental part: as §1
Assay [2] deals with S. cerevisiae (BY4741 his3Δ::KanMX). The assay is described as follows: Multivariate morphological analysis (CalMorph). The assay is classed as cell-based, Saccharomyces cerevisiae. On the procedure:
Cells of budding yeast S. cerevisiae (BY4741 his3Δ::KanMX; hereafter, his3Δ) were cultured in 2 mL 1% Bacto yeast extract (BD Biosciences), 2% Bacto peptone (BD Biosciences), and 2% glucose (YPD) with 0, 25, 50, 75, 100, or 125 μg/mL poacic acid or a DMSO control at 25° C. for 16 h until the early log phase. The maximum concentration of the drug (125 μg/mL) was determined based on the growth inhibition rates (10%). Cell fixation, staining, and observation were performed (n=5) as described previously (Ohya et al. 2005). Images of cell shape, actin, and nuclear DNA were analyzed using the image processing software CalMorph (version 1.2), which extracted a total of 501 morphological quantitative values from at least 200 individual cells in each experiment (Ohya et al. 2005). Images were processed using Photoshop CS2 (Adobe Systems) for illustrative purposes.
To assess the morphological similarity between the cells treated with poacic acid and nonessential deletion mutants or cells treated with other cell wall-affecting drugs, their morphological profiles were compared as described previously (Ohnuki et al. 2010). To identify functional gene clusters, the most significant similar mutants (43 genes, P<0.01 after Bonferroni correction, t test) were selected as a query for GO term analysis (GO term finder in the Saccharomyces genome database).
To extract independent and characteristic features of morphology induced by poacic acid, a two-step principal component analysis was performed as described previously (Ohnuki et al. 2012). To compare phenotypic noise in the yeast population (poacic acid vs. DMSO), the noise score was calculated as described previously (Yvert et al. 2013).

In a further assay the test system is Saccharomyces cerevisiae. The assay is described as follows: Growth inhibition of S. cerevisiae control strain by diferulates. It counts as cell-based. The following applies: for bioactivity against S. cerevisiae: 1 mg/mL. On the procedure: as §2

Values joined by “and” are separate entries in the source; they are usually repeats but may differ in a detail not shown here. Identical values can stand only once. “Also recorded” adds a separate entry of the source.

`COc1cc(/C=C/c2cc(/C=C/C(=O)O)cc(OC)c2O)ccc1O` [poacic acid, (E)-4-Hydroxy-3-{2-[(E)-4-hydroxy-3-methoxystyryl]}-5-methoxycinnamic acid]: the “lesion development on detached soybean leaves” value in the assay with S. sclerotiorum is reported as “markedly reduced lesion development”. Moreover, the “reduction in the IC50 compared with the control strain (WT)” value in the assay with bck1Δ mutant is “six-fold reduction; also recorded: six-fold more sensitive”. In addition, in the assay on β-1,3-glucan synthesis, the “14C-glucose incorporation into the β-1,3-glucan layer” value was “significantly less 14C-glucose incorporation”. Further, in the assay on P. sojae (field isolate), the colony growth entry is on record as “significantly reduces colony growth”. Besides, in assay [1], the “colony radial growth on agar plates” value is “dose-dependent decrease” and the “fungal mass (mycelia weight) in liquid culture” value was “dose-dependent decrease”. In assay [2] (0-125 μg/mL, 16 h), the bud neck size entry was “dose-dependent increase in bud neck size” and the “heterogeneity of cell morphology” value is on record as “heterogeneous morphologies”. Also, the inhibition at 125 µg/mL in assay [2] (Saccharomyces cerevisiae, read-out: growth inhibition rates) worked out at 10%. Besides, the “morphological correlation with other cell wall-affecting compounds” value in assay [2] (vs micafungin, echinocandin B and other cell wall-affecting compounds) is listed as “lower morphological correlations”. Besides, in the assay on Saccharomyces cerevisiae, the “bioactivity against S. cerevisiae” value is on record as “greatest antifungal activity”. In addition, the “bioactivity against S. cerevisiae” value in the assay with Saccharomyces cerevisiae (listed as Poacic acid) is reported as “highest bioactivity”. For the same molecule, the IC50 with Saccharomyces cerevisiae (Saccharomyces cerevisiae, read-out: IC50 (growth rate inhibition)) is 111 µg/mL and 324 µM.

The term inhibition denotes the change of the read-out against control, counted positive when it falls. Broadly, the IC50 is the concentration that inhibits the measured activity by half.
